Data reported in ChEMBL document CHEMBL1154065, “Discovery of novel P3 sulfonamide-capped inhibitors of HCV NS3 protease. Inhibitors with improved cellular potencies” (Bioorg Med Chem, 2009).
pKi: −log10 of the molar value.

Key:
[1] = Selectivity for HCV NS3 protease over human neutrophil elastase
Hepatitis C virus [2] = test: Antiviral activity against Hepatitis C virus infected in human hepatoma cell by replicon assay; format: functional, Hepacivirus hominis
[3] = Inhibition of HCV NS3 protease by continuous spectrophotometric assay; design: species or system Hepacivirus hominis
Rattus norvegicus = test: AUC (0 to 6 hrs) in po dosed rat; format: ADME, organism-based, Plasma; design: time < 6 hr, route oral; settings: in vivo
[4] = AUC (0 to 6 hrs) in rat at 10 mg/kg, po; format: ADME, organism-based; design: time < 6 hr, dose 10 mg/kg, route oral; settings: plasma
[5] = AUC (0 to 6 hrs) in monkey at 3 mg/kg, po; format: ADME, organism-based, Macaca mulatta; design: time < 6 hr, dose 3 mg/kg, route oral; settings: rhesus monkey, plasma
Hepatitis C virus [6] = test: Ratio of boceprevir EC90 to compound EC90 for Hepatitis C virus infected in human hepatoma cell; format: functional, Hepacivirus hominis

Selectivity ratio [1] | EC90 (Hepatitis C virus [2]) [nM] | pKi [3] | AUC (Rattus norvegicus) [µM·h] | AUC(0-t) at 6 h [4] [µM·h] | AUC(0-t) at 6 h [5] [µM·h] | Structure (SMILES) | Ratio (Hepatitis C virus [6])
2200 | 350 | 7.85 | – | – | – | CC(C)(C)NC(=O)N[C@H](C(=O)N1C[C@H]2[C@@H]([C@H]1C(=O)NC(CC1CCC1)C(=O)C(N)=O)C2(C)C)C(C)(C)C (some centres undefined) [BOCEPREVIR] | –
680 | 130 | 8.22 | – | – | – | CC(C)[C@H](CN(C)S(=O)(=O)c1ccccc1)NC(=O)N[C@H](C(=O)N1C[C@H]2[C@@H]([C@H]1C(=O)NC(CC1CC1)C(=O)C(N)=O)C2(C)C)C(C)(C)C (some centres undefined) | –
– | 60 | 8.22 | – | 1.2 | 0.69 | C=CCNC(=O)C(=O)C(CCCC)NC(=O)[C@@H]1[C@@H]2[C@H](CN1C(=O)[C@@H](NC(=O)N[C@H](CN(C)S(=O)(=O)CC)C(C)(C)C)C1Cc3ccccc3C1)C2(C)C (some centres undefined) | 5
– | 400 | 7.92 | – | – | – | CN(CC1(NC(=O)N[C@H](C(=O)N2C[C@H]3[C@@H]([C@H]2C(=O)NC(CC2CCC2)C(=O)C(N)=O)C3(C)C)C(C)(C)C)CCCCC1)S(=O)(=O)c1ccccc1 (some centres undefined) | –
– | 260 | 8.00 | 1.38 | – | – | C=CCNC(=O)C(=O)C(CCC)NC(=O)[C@@H]1[C@@H]2[C@H](CN1C(=O)[C@@H](NC(=O)N[C@H](CN(C)S(=O)(=O)c1cccs1)C(C)(C)C)C(C)(C)C)C2(C)C (some centres undefined) | –
– | 2000 | 7.51 | – | – | – | CC(C)[C@@H](CNS(C)(=O)=O)NC(=O)N[C@H](C(=O)N1C[C@H]2[C@@H]([C@H]1C(=O)NC(CC1CCC1)C(=O)C(N)=O)C2(C)C)C(C)(C)C (some centres undefined) | –
– | 100 | 7.92 | – | – | – | CC(C)[C@@H](CN(C)S(=O)(=O)c1cccs1)NC(=O)N[C@H](C(=O)N1C[C@H]2[C@@H]([C@H]1C(=O)NC(CC1CCC1)C(=O)C(N)=O)C2(C)C)C(C)(C)C (some centres undefined) | –
– | 150 | 8.30 | 0.06 | – | – | CN(C[C@@H](NC(=O)N[C@H](C(=O)N1C[C@H]2[C@@H]([C@H]1C(=O)NC(CC1CCC1)C(=O)C(N)=O)C2(C)C)C(C)(C)C)C(C)(C)C)S(C)(=O)=O (some centres undefined) | 2

Further lines, the molecule ahead of its results:

Structure (SMILES) | Selectivity ratio [1] | EC90 (Hepatitis C virus [2]) [nM] | pKi [3] | AUC (Rattus norvegicus) [µM·h] | AUC(0-t) at 6 h [4] [µM·h] | AUC(0-t) at 6 h [5] [µM·h] | Ratio (Hepatitis C virus [6])
CC(C)C[C@@](C)(CN(C)S(=O)(=O)c1ccccc1)NC(=O)N[C@H](C(=O)N1C[C@H]2[C@@H]([C@H]1C(=O)NC(CC1CCC1)C(=O)C(N)=O)C2(C)C)C(C)(C)C (some centres undefined) | – | – | 7.10 | – | – | – | –
C=CCNC(=O)C(=O)C(CCC)NC(=O)[C@@H]1[C@@H]2[C@H](CN1C(=O)[C@@H](NC(=O)N[C@H](CN(C)S(=O)(=O)CC)C(C)(C)C)C(C)(C)C)C2(C)C (some centres undefined) | – | 150 | 8.00 | 0.34 | – | – | –
CC(C)[C@@H](CN(C)S(C)(=O)=O)NC(=O)N[C@H](C(=O)N1C[C@H]2[C@@H]([C@H]1C(=O)NC(CC1CCC1)C(=O)C(N)=O)C2(C)C)C(C)(C)C (some centres undefined) | – | 350 | 8.40 | – | – | – | –
CN(C[C@@H](NC(=O)N[C@H](C(=O)N1C[C@H]2[C@@H]([C@H]1C(=O)NC(CC1CCC1)C(=O)C(N)=O)C2(C)C)C(C)(C)C)C(C)(C)C)S(=O)(=O)C1CC1 (some centres undefined) | – | 90 | 8.30 | 0.09 | – | – | –
CC(C)[C@H](NC(=O)N[C@H](C(=O)N1C[C@H]2[C@@H]([C@H]1C(=O)NC(CC1CC1)C(=O)C(N)=O)C2(C)C)C(C)(C)C)C(=O)OC(C)(C)C (some centres undefined) | – | 200 | 8.22 | – | – | – | –
CC(C)[C@@H](CNS(=O)(=O)c1cccs1)NC(=O)N[C@H](C(=O)N1C[C@H]2[C@@H]([C@H]1C(=O)NC(CC1CCC1)C(=O)C(N)=O)C2(C)C)C(C)(C)C (some centres undefined) | – | 600 | 7.64 | – | – | – | –
CC(C)[C@@H](CNS(=O)(=O)c1ccccc1)NC(=O)N[C@H](C(=O)N1C[C@H]2[C@@H]([C@H]1C(=O)NC(CC1CC1)C(=O)C(N)=O)C2(C)C)C(C)(C)C (some centres undefined) | – | 550 | 8.00 | – | – | – | –
CN(C[C@@H](NC(=O)N[C@H](C(=O)N1C[C@H]2[C@@H]([C@H]1C(=O)NC(CC1CCC1)C(=O)C(N)=O)C2(C)C)C(C)(C)C)C(C)(C)C)S(=O)(=O)c1cccs1 (some centres undefined) | – | 60 | 8.40 | 0.11 | – | – | –
CC[C@H](C)[C@@H](CN(C)S(=O)(=O)c1ccccc1)NC(=O)N[C@H](C(=O)N1C[C@H]2[C@@H]([C@H]1C(=O)NC(CC1CCC1)C(=O)C(N)=O)C2(C)C)C(C)(C)C (some centres undefined) | – | 250 | 7.89 | – | – | – | –
C=CCNC(=O)C(=O)C(CCC)NC(=O)[C@@H]1[C@@H]2[C@H](CN1C(=O)[C@@H](NC(=O)N[C@H](CN(C)S(=O)(=O)c1ccccn1)C(C)(C)C)C(C)(C)C)C2(C)C (some centres undefined) | – | 180 | 7.85 | 1.02 | – | – | –
CC(C)[C@@H](CN(C)S(=O)(=O)c1ccccc1)NC(=O)N[C@H](C(=O)N1C[C@H]2[C@@H]([C@H]1C(=O)NC(CC1CC1)C(=O)C(N)=O)C2(C)C)C(C)(C)C (some centres undefined) | – | 130 | 8.10 | – | – | – | –
CCS(=O)(=O)N(C)C[C@@H](NC(=O)N[C@H](C(=O)N1C[C@H]2[C@@H]([C@H]1C(=O)NC(CC1CCC1)C(=O)C(N)=O)C2(C)C)C(C)(C)C)C(C)(C)C (some centres undefined) | – | 150 | 8.40 | – | – | – | –
C=CCNC(=O)C(=O)C(CCC)NC(=O)[C@@H]1[C@@H]2[C@H](CN1C(=O)[C@@H](NC(=O)N[C@H](CN(C)S(=O)(=O)CC)C(C)(C)C)C1Cc3ccccc3C1)C2(C)C (some centres undefined) | – | 100 | 8.22 | – | – | – | –
CN(C[C@@H](NC(=O)N[C@H](C(=O)N1C[C@H]2[C@@H]([C@H]1C(=O)NC(CC1CCC1)C(=O)C(N)=O)C2(C)C)C(C)(C)C)C(C)(C)C)S(=O)(=O)c1ccccc1 (some centres undefined) | – | 75 | 8.30 | – | – | – | –
CC(C)C(CN(C)S(=O)(=O)c1ccccc1)NC(=O)N[C@H](C(=O)N1C[C@H]2[C@@H]([C@H]1C(=O)NC(CC1CCC1)C(=O)C(N)=O)C2(C)C)C(C)(C)C (single isomer, unassigned) | 3100 | 140 | 8.10 | – | – | – | –
C=CCNC(=O)C(=O)C(CCCC)NC(=O)[C@@H]1[C@@H]2[C@H](CN1C(=O)[C@@H](NC(=O)N[C@H](CN(C)S(=O)(=O)N(C)C)C(C)(C)C)C1CCCCC1)C2(C)C (some centres undefined) | – | 80 | 8.22 | – | 1.74 | – | –
C=CCNC(=O)C(=O)C(CCC)NC(=O)[C@@H]1[C@@H]2[C@H](CN1C(=O)[C@@H](NC(=O)N[C@H](CN(C)S(=O)(=O)N(C)C)C(C)(C)C)C1Cc3ccccc3C1)C2(C)C (some centres undefined) | – | 100 | 7.96 | – | – | – | –
CC(C)(C)[C@H](NC(=O)N[C@H](CNS(=O)(=O)c1ccccc1)C(C)(C)C)C(=O)N1C[C@H]2[C@@H]([C@H]1C(=O)NC(CC1CCC1)C(=O)C(N)=O)C2(C)C (some centres undefined) | – | – | 7.89 | – | – | – | –
